From ChEMBL document CHEMBL5608206, “Exploring monocyclic core: Discovery of pyrrol-2-one derivatives as a new series of potent MCHR1 antagonists with in vivo efficacy” (Eur J Med Chem, 2024)

How the values were obtained:
in vitro [1] = details: human, liver microsomes
in vitro [2] = details: rat, liver microsomes
in vitro [3] = details: mouse, liver microsomes

COc1cc(N2CC=C(Oc3ccc(C4CC4)cc3)C2=O)ccc1OCCO
remaining at 10 min, 3 µM (in vitro [1]): 87%
remaining at 10 min, 3 µM (in vitro [2]): 71%
remaining at 10 min, 3 µM (in vitro [3]): 74%
logP (physchem): 3.3
